Entries after “also recorded” stand apart in the source; their conditions may differ.
Tests used:
[1] = system: hyperpyressia induced by yeast; assay: Anti-piretic activity, hyperpyressia induced by yeast; type: in vivo, albino rabbits
Description: (§1) This was evaluated considering 2 kinds of hyperpyressia. Hyperpyressia induced by:
To albino rabbits, 1 ml/kg of a 0.2% aqueous suspension of yeast were injected intravenously. The rectal temperature was teken at the beginning of the experiment and 60 minutes after the treatment with the pyrogen agent. Immediately after taking the temperature the compounds under test were administered orally to the animals and the rectal temperatures thereof were subsequently measured after 30, 60, 120 and 180 minutes. 10 Animals were treated for each dose level. The difference between the temperatures taken in the animals treated and in the controls is and index of the antipyretic activity. The results obtained by performing the two methods cited above for the determination of the antipyretic activity are listed in Tables 4 and 5 respectively and evaluated as average value for each dose.

[2] = system: edema induced by carrageenin; assay: Anti-inflammatory activity, Winter's method (carrageenin edema); type: in vivo, male rats; settings: 3 hours after carrageenin
Description: This was determined according to Winter's method which evaluates the inhibiting effect on the edema induced by carrageenin.
Male rats weighing 170-190 g were treated with the compounds under test and after 60 minutes 0.005 ml of a 1% aqueous solution of carrageenin were injected into the plantar zone of a hind paw of each animal. The volume of the treated paw was determined immediately after the injection and 3 hours later.
10 Animals were used for each dosage level. The increase difference in the volume of the paw of animals treated compared with the controls represents the index of the anti-inflammatory activity. The results obtained, expressed as percentage inhibition of the volume of the edema compared to the controls and evaluated as average value for each dose are listed in Table 3.

[3] = system: hyperpyressia induced by bactopeptone; assay: Anti-piretic activity, hyperpyressia induced by bactopeptone; type: in vivo, Wistar male rats
Description: as §1
1 Milliliter of 5% aqueous solution of bactopeptone preincubated for 18 hours at 37°C were injected subcutaneously in Wistar male rats weighing 170-190 g. 4 Hours after treatment with the pyrogen, the animals were divided into groups of ten animals each and treated orally with the substances under examination. The rectal temperature was taken at the beginning of the test, 4 hours after the injection of the pyrogen agent and subsequently 1, 2 and 3 hours after the administration of the substances under test. The difference between the temperature taken in the treated animals and in controls is an index of the anti-pyretic activity.

[4] = Toxicity / therapeutical index (general statement); settings: statement in words
[5] = Chemical stability (general statement); type: physicochemical; settings: statement in words
[6] = system: abdominal stretching induced by phenylbenzoquinone; assay: Analgesic activity, Siegmund (phenylbenzoquinone abdominal stretching); type: in vivo, Swiss male mice; settings: salts' dosage expressed as acid, vs water controls
Description: It was evaluated according to the following methods:
The antagonism towards the abdominal stretching induced by phenylbenzoquinone was evaluated. Swiss male mice weighing 19-21 g were treated orally with the compounds under examination 30 minutes before the endoperitoneal administration of 0.25 ml of a […] aqueous phenylbenzoquinone solution. The animals were kept under observation for 30 minutes after treatment with phenylbenzoquinone and the abdominal stretchings for each animal were counted. 10 Mice for each dosage level were used and the corresponding average values considered. The percentage decrease of the number of abdominal stretchings in the animals treated with the substances under test compared with the controls treated with water was taken as the index of the analgesic activity.

[7] = system: pain threshold of rat's paw made edematous by yeast; assay: Analgesic activity, Randall and Selitto (pain threshold of edematous rat paw); type: in vivo, male Wistar rats; settings: vs basal values
Description: It was evaluated according to the following methods: a. Randall and Selitto The pressure to be exerted on a rat's paw previously made edematous by injecting into the plantar zone 0.1 ml of 20% suspension of yeast until appearance of painful reaction was measured in mmHg. The pain threshold was determined 30 minutes before and 30, 60, 90 and 120 minutes after the administration of the substances under test. 10 Male Wistar rats weighing 170-190 g were used for each dosage level and the corresponding average values considered for each dose. The percentage increase of the pain threshold compared to the basal values is taken as the index of the analgesic activity.

[8] = 5 mg/kg i.p., salts' dosage expressed as acid
[9] = 10 mg/kg os, salts' dosage expressed as acid
[10] = 25 mg/kg i.p., salts' dosage expressed as acid
[11] = 50 mg/kg i.p., salts' dosage expressed as acid
[12] = 50 mg/kg os, salts' dosage expressed as acid
[13] = 15 mg/kg os, salts' dosage expressed as acid
[14] = 25 mg/kg os, salts' dosage expressed as acid

SMILES	Rectal temperature, 30 mins. after treatment ([1]; 10 mg/kg per os) [°C]	% Inhibition of oedema ([2]; 2.5 mg/kg i.p.) [%]	% Inhibition of oedema [2, 8] [%]	% Inhibition of oedema [2, 9] [%]	% Inhibition of oedema [2, 10] [%]	% Inhibition of oedema [2, 11] [%]	% Inhibition of oedema [2, 12] [%]	Rectal temperature, 1 hour after treatment [3, 13] [°C]	Rectal temperature, 2 hours after treatment [3, 13] [°C]	Rectal temperature, 3 hours after treatment [3, 13] [°C]	Rectal temperature, 1 hour after treatment [3, 14] [°C]	Rectal temperature, 2 hours after treatment [3, 14] [°C]	Rectal temperature, 3 hours after treatment [3, 14] [°C]	% Decrease in number of stretchings ([6]; 25 mg/kg os) [%]	% Decrease in number of stretchings ([6]; 50 mg/kg os) [%]	% Decrease in number of stretchings ([6]; 100 mg/kg os) [%]	% Increase of pain threshold [7, 10] [%]	% Increase of pain threshold [7, 14] [%]	% Increase of pain threshold [7, 11] [%]	% Increase of pain threshold [7, 12] [%]	also measured
O=C(O)Cc1ccc(OCC2CC2)c(Cl)c1 [4-cyclopropylmethyleneoxy-3-chlorophenylacetic acid]	40.05	15	37	31	55	61	65	37.7	38.0	37.6	37.3	37.3	37.1	51	77	98	27	44	105	120	Rectal temperature, 30 mins. after treatment ([1]; 5 mg/kg per os): 40.17 °C; Rectal temperature, 60 mins. after treatment ([1]; 5 mg/kg per os): 40.15 °C; Rectal temperature, 120 mins. after treatment ([1]; 5 mg/kg per os): 40.55 °C; Rectal temperature, 180 mins. after treatment ([1]; 5 mg/kg per os): 40.02 °C; Rectal temperature, 60 mins. after treatment ([1]; 10 mg/kg per os): 39.90 °C; Rectal temperature, 120 mins. after treatment ([1]; 10 mg/kg per os): 39.48 °C; Rectal temperature, 180 mins. after treatment ([1]; 10 mg/kg per os): 39.32 °C; Rectal temperature, 30 mins. after treatment ([1]; 25 mg/kg per os): 40.65 °C; Rectal temperature, 60 mins. after treatment ([1]; 25 mg/kg per os): 39.95 °C; Rectal temperature, 120 mins. after treatment ([1]; 25 mg/kg per os): 39.20 °C; Rectal temperature, 180 mins. after treatment ([1]; 25 mg/kg per os): 39.05 °C; Rectal temperature, 1 hour after treatment ([3]; 6 mg/kg os): 38.7 °C; Rectal temperature, 2 hours after treatment ([3]; 6 mg/kg os): 39.3 °C; Rectal temperature, 3 hours after treatment ([3]; 6 mg/kg os): 39.1 °C; toxicity [4]: low toxicity; stability of chemical structure [5]: noticeable stability; also recorded: chemically stable; % Increase of pain threshold ([7]; 100 mg/kg i.p.): 176%; % Increase of pain threshold ([7]; 100 mg/kg os): 180%
CCCCC1C(=O)N(c2ccccc2)N(c2ccccc2)C1=O [phenylbutazone, 4-butyl-1,2-diphenyl-3,5-dioxopyrazoline, reference compound]		0	3	0	22	55	28	38.3	38.8	38.6	38.1	38.9	38.3	3	65	98	3	33	42	94	Rectal temperature, 1 hour after treatment ([3]; 100 mg/kg os): 38.1 °C; Rectal temperature, 2 hours after treatment ([3]; 100 mg/kg os): 37.6 °C; Rectal temperature, 3 hours after treatment ([3]; 100 mg/kg os): 37.4 °C
O=C([O-])Cc1ccc(OCC2CC2)c(Cl)c1.O=C([O-])Cc1ccc(OCC2CC2)c(Cl)c1.[Cu+2] [copper 4-cyclopropylmethyleneoxy-3-chlorophenylacetate]			32	38	51	61	71	38.1	37.7	36.7	37.8	37.2	36.6	50	81	99	67	62	121	116	
O=C(O)Cc1ccc(OCC2CC2)c(Cl)c1 [DL-lysine 4-cyclopropylmethyleneoxy-3-chlorophenylacetate]			38	41	64		81	37.6	38.0	37.8	37.4	37.0	36.7	60	90	100	83	30	103	104	
C=CCOc1ccc(CC(=O)O)cc1Cl [4-allyloxy-3-chlorophenylacetic acid, reference compound]	40.30	0	10	18	25	57	34	38.2	38.7	38.4	37.6	38.4	38.5	27	58	96	7	15	30	57	Rectal temperature, 60 mins. after treatment ([1]; 10 mg/kg per os): 40.13 °C; Rectal temperature, 120 mins. after treatment ([1]; 10 mg/kg per os): 40.06 °C; Rectal temperature, 180 mins. after treatment ([1]; 10 mg/kg per os): 40.03 °C; Rectal temperature, 30 mins. after treatment ([1]; 25 mg/kg per os): 40.35 °C; Rectal temperature, 60 mins. after treatment ([1]; 25 mg/kg per os): 39.85 °C; Rectal temperature, 120 mins. after treatment ([1]; 25 mg/kg per os): 39.30 °C; Rectal temperature, 180 mins. after treatment ([1]; 25 mg/kg per os): 39.25 °C; Rectal temperature, 1 hour after treatment ([3]; 50 mg/kg os): 37.7 °C; Rectal temperature, 2 hours after treatment ([3]; 50 mg/kg os): 37.5 °C; Rectal temperature, 3 hours after treatment ([3]; 50 mg/kg os): 37.7 °C; % Increase of pain threshold ([7]; 100 mg/kg i.p.): 93%; % Increase of pain threshold ([7]; 100 mg/kg os): 92%
